Assay results as given in US8952183B2, “Inhibitors of sialidase or sialidase-like enzymes” (priority 2009, dated 2015).

Experiments:
[1] = molecular target: influenza A neuraminidase (N1) (Influenza A virus, UniProt P03468); assay type: biochemical
influenza neuraminidases = conditions: Colman, 1999; cited from earlier work
[2] = test system: bacterial or mammalian neuraminidases; conditions: Colman, 1999; cited from earlier work

Chain of influenza A neuraminidase (N1) (P03468 whole entry): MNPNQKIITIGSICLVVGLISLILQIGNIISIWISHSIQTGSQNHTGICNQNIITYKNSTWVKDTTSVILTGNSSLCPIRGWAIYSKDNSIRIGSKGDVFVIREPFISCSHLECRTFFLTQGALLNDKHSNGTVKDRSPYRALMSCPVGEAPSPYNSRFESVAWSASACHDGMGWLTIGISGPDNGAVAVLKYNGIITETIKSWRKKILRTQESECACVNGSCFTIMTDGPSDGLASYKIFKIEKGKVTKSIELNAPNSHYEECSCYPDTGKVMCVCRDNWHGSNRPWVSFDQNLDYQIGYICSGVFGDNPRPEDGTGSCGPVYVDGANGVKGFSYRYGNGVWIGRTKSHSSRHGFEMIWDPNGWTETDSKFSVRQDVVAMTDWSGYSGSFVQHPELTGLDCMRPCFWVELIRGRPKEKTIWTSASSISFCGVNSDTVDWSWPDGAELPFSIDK

SMILES	potency as inhibitor compared with ATA [1]	potency against influenza neuraminidases (influenza neuraminidases)	potency against bacterial or mammalian neuraminidases [2]
CC(=N)N[C@H]1[C@H]([C@H](NC(C)=O)[C@@H](C)O)OC(C(=O)O)=C[C@@H]1O [Compound 8, 5-acetamidino-7-acetamido-3,5,7,9-tetradeoxy-D-glycero-D-galacto-non-2-enonate]	not as potent an inhibitor as Aurintricarboxylic acid (ATA)	–	–
CC(=O)N[C@H]1[C@H]([C@H](O)[C@H](O)CO)OC(C(=O)O)=C[C@@H]1N=C(N)N [zanamivir]	–	very potent	much less potent
